For series [1] the following is noted: Crystal; DTA.
Series [2] in a line: Molar enthalpy of transition or fusion. Conditions: Crystal; DSC.

Molecules are shown by their SMILES. ± gives the expanded uncertainty stated by the source.

As to `COc1cc(CO)ccc1O` [4-hydroxy-3-methoxybenzyl alcohol], the Normal melting temperature in series [1] came out at 116 ± 1.1 °C. Moreover, in series [2], the “Molar enthalpy of transition or fusion” value worked out at 7.35 ± 0.335 kcal/mol.

Values taken from the NIST ThermoML archive (doi:10.1016/j.jct.2016.11.030).
